SMILES strings stand for the structures.

What all share (type): cell-based
The target of test [1] is T1, PPARα (Homo sapiens, UniProt Q07869).
T1 construct: the reporter is ERE-βGlob-Luc
T1 sequence (Q07869 200-468 limits assumed): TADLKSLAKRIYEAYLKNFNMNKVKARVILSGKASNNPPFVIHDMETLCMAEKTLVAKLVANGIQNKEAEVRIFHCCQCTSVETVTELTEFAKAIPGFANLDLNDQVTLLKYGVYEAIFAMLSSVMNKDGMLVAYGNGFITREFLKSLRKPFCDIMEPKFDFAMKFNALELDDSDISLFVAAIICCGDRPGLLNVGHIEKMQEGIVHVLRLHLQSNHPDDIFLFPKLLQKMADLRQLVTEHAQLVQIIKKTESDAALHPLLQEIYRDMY
The experiment in a line: Cross-curve PPAR transactivation test, PPARα. The conditions noted are these: HeLN cells, stable transfectants ERE-βGlob-Luc-SV-Neo and Gal-hPPARα; luciferase; cross curves against reference agonist, Schild regression; n.a. means not active; read-out: PPAR alpha Kd app. As for the experimental part:
(§1) The activation of the receptors with an agonist (activator) in HeLN cells leads to the expression of a reporter gene, luciferase, which, in the presence of a substrate, generates light. The modulation of the receptors is measured by quantifying the luminescence produced after incubating the cells in the presence of a reference agonist. The ligands displace the agonist from its site. The measurement of the activity is performed by quantifying the light produced. This measurement makes it possible to determine the modulatory activity of the compounds according to the invention by determining the constant that is the affinity of the molecule for the receptor. Since this value can fluctuate depending on the basal activity and the expression of the receptor, it is referred to as Kd apparent (KdApp in nM).
(§2) To determine this constant, “cross curves” of the test product against a reference agonist are produced in a 96-well plate: 10 concentrations of the test product plus a concentration 0 are arranged in a line, and 7 concentrations of the agonist plus a concentration 0 are arranged in a column. This is 88 measurement points for 1 product and 1 receptor. The remaining 8 wells are used for repeatability controls.
(§3) Measurements are also taken for total agonist controls with the same products.
(§4) The HeLN cell lines used are stable transfectants containing the plasmids ERE-βGlob-Luc-SV-Neo (reporter gene) and PPAR (α, δ, γ) Gal-hPPAR. These cells are inoculated into 96-well plates at a rate of 10 000 cells per well in 100 μl of DMEM medium without phenol red and supplemented with 10% of defatted calf serum. The plates are then incubated at 37° C. and 7% CO2 for 16 hours.
(§5) The various dilutions of the test products and of the reference ligand are added at a rate of 5 μl per well. The plates are then incubated for 18 hours at 37° C. and 7% CO2. The culture medium is removed by turning over and 100 μl of a 1:1 PBS/luciferin mixture are added to each well. After 5 minutes, the plates are read by the luminescence detector.

The target of test [2] is T2, PPARδ (Homo sapiens, UniProt Q03181).
T2 construct: the reporter is ERE-βGlob-Luc
T2 sequence (Q03181 171-441 limits assumed): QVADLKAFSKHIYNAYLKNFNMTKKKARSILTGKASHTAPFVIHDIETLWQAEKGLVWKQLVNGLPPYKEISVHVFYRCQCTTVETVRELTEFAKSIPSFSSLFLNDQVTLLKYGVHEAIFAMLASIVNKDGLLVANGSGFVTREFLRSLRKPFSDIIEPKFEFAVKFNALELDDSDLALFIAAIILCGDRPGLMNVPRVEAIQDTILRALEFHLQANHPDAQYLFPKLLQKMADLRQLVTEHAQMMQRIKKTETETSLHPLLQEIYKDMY
As to the kind of experiment: Cross-curve PPAR transactivation test, PPARδ. The conditions noted are these: HeLN cells, stable transfectants ERE-βGlob-Luc-SV-Neo and Gal-hPPARδ; luciferase; cross curves against reference agonist, Schild regression; n.a. means not active; read-out: PPARs delta Kd app. As for the experimental part: as §1, §2, §3, §4, §5

For test [3], the target named is T3, PPARγ (Homo sapiens, UniProt P37231).
T3 construct: the reporter is ERE-βGlob-Luc
T3 sequence (P37231 238-505 limits assumed): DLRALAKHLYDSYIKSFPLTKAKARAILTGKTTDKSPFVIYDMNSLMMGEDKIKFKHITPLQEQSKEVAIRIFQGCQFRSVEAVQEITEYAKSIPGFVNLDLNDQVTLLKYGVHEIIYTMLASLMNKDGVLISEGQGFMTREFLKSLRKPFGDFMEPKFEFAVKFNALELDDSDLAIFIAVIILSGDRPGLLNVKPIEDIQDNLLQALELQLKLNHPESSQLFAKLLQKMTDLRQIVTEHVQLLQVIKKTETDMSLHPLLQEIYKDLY
The experiment in a line: Cross-curve PPAR transactivation test, PPARγ. The conditions noted are these: HeLN cells, stable transfectants ERE-βGlob-Luc-SV-Neo and Gal-hPPARγ; luciferase; cross curves against reference agonist, Schild regression; n.a. means not active; read-out: PPAR gamma Kd app. As for the experimental part:
as §1, §2, §3, §4, §5

As for `CCCCN1C(=O)/C(=N/NC(=O)Nc2ccccc2)c2cc(SCCc3ccc(C(=O)O)cc3)ccc21` [Example 14, 4-{2-[3-((anilinocarbonyl)hydrazono)-2-oxo-1-butyl-2,3-dihydro-1H-indol-5-ylsulfanyl]ethyl}benzoic acid], the results for the Kd in test [1], in test [2] and in test [3] were 2000 nM, 120 nM and 1000 nM, respectively.
As to `O=C(N/N=C1\C(=O)N(CCc2ccccc2)c2ccc(SCCc3ccc(C(=O)O)cc3)cc21)Nc1ccccc1` [Example 16, 4-{2-[3-((anilinocarbonyl)hydrazono)-2-oxo-1-phenethyl-2,3-dihydro-1H-indol-5-ylsulfanyl]ethyl}benzoic acid], the Kd was 2000 nM in test [1], 4000 nM in test [2] and 500 nM in test [3].
Take `COC(=O)c1ccc(CCSc2ccc3c(c2)/C(=N\NC(=O)Nc2cccc(F)c2)C(=O)N3CCc2ccccc2)cc1` [Example 17, methyl 4-{2-[3-((3-fluoroanilinocarbonyl)hydrazono)-2-oxo-1-phenethyl-2,3-dihydro-1H-indol-5-ylsulfanyl]ethyl}benzoate]: the Kd is 250 nM in test [1] and 1000 nM in test [3].
With `CCCCN1C(=O)/C(=N\NC(=O)Nc2cccc(F)c2)c2cc(SCCc3ccc(C(=O)O)cc3)ccc21` [Example 18, 4-{2-[3-((3-fluoroanilinocarbonyl)hydrazono)-2-oxo-1-butyl-2,3-dihydro-1H-indol-5-ylsulfanyl]ethyl}benzoic acid], the Kd in test [1] was 2000 nM; in test [2], 250 nM; in test [3], 500 nM.
On to `CCCCCCCN1C(=O)/C(=N\NC(=O)Nc2cccc(C(F)(F)F)c2)c2cc(SCCc3ccc(C(=O)O)cc3)ccc21` [Example 20, 4-{2-[3-((3-trifluoromethylanilinocarbonyl)hydrazono)-2-oxo-1-heptyl-2,3-dihydro-1H-indol-5-ylsulfanyl]ethyl}benzoic acid], for which the Kd in test [1] came to 2000 nM; in test [2], 500 nM; in test [3], 1000 nM.
As to `CCCCCCCN1C(=O)C(=NNC(=O)Nc2ccccc2Cl)c2cc(SCCc3ccc(C(=O)O)cc3)ccc21` [Example 22, 4-{2-[3((2-chloroanilinocarbonyl)hydrazono)-2-oxo-1-heptyl-2,3-dihydro-1H-indol-5-ylsulfanyl]ethyl}benzoic acid], the Kd was found to be 2000 nM in test [1], 60 nM in test [2] and 1000 nM in test [3].
As for `O=C(N/N=C1/C(=O)N(CCc2ccccc2)c2ccc(SCCc3ccc(C(=O)O)cc3)cc21)Nc1ccc(C(F)(F)F)cc1Cl` [Example 35, 4-{2-[3((2-chloro-4-trifluoromethylanilinocarbonyl)hydrazono)-2-oxo-1-phenethyl-2,3-dihydro-1H-indol-5-ylsulfanyl]ethyl}benzoic acid], the values for the Kd in test [1], in test [2] and in test [3] were 8000 nM, 500 nM and 250 nM, respectively.
On to `CCCCCCN1C(=O)/C(=N/NC(=O)Nc2ccccc2)c2cc(SCCCc3ccc(C(=O)O)cc3)ccc21` [Example 62, 4-[3-(3-((anilinocarbonyl)hydrazono)-2-oxo-1-hexyl-2,3-dihydro-1H-indol-5-ylsulfanyl)propyl]benzoic acid], for which the Kd in test [2] was 500 nM; in test [3], 4000 nM.
Consider `CCCCCCN1C(=O)/C(=N/NC(=O)Nc2ccc(F)cc2)c2cc(SCCCc3ccc(C(=O)O)cc3)ccc21` [Example 74, 4-[3-(3-((4-fluoroanilinocarbonyl)hydrazono)-2-oxo-1-hexyl-2,3-dihydro-1H-indol-5-ylsulfanyl)propyl]benzoic acid], for which the Kd is 4000 nM in test [1], 250 nM in test [2] and 4000 nM in test [3].
Take `CCCCCCCN1C(=O)/C(=N\NC(=O)Nc2ccccc2Cl)c2cc(SCCc3ccc(C(=O)O)cc3)ccc21` [Example 84, 4-{2-[3-((2-chloroanilino)carbonylhydrazono)-2-oxo-1-heptyl-2,3-dihydro-1H-indol-5-ylsulfanyl]ethyl}benzoic acid]: the Kd worked out at 500 nM in test [1], 30 nM in test [2] and 1000 nM in test [3].

The record behind these values is US20080004274A1, “Novel biaromatic compounds that modulate PPAR type receptors and cosmetic/pharmaceutical compositions comprised thereof” (GALDERMA RESEARCH & DEVELOPMENT, priority 2004, published 2008).
